pIC50, pKi: −log10 of the molar value.
Experiments:
[1] = target: T1, gelatinase MMP-9 (Homo sapiens, UniProt P14780); assay: Test for enzymatic inhibition of MMP-9 (colorimetric, thiopeptide substrate/DTNB); assay type: biochemical; details: purified human enzyme; for pIC50: 1 h preincubation, 150 μM substrate, read-out: IC50 MMP9; for pKi: read-out: Ki MMP9
T1 construct: purchased Anaspec, USA
Experimental: (§1) Protocols of the Tests for Enzymatic Inhibition of MMP-9 and MMP-12
(§2) The enzymatic tests for screening compounds 1 to 7 were carried out in solution on two purified human enzymes: the gelatinase MMP-9 (Anaspec, USA) and the metalloelastase MMP-12 (Anaspec, USA).
(§3) The principle is based on the cleavage, by the MMP-9 or MMP-12 enzyme, of a chromogenic substrate: the thiopeptide (Ac-Pro-Leu-Gly-[2-mercapto-4-methylpentanoyl]-Leu-Gly-OC2H5) (Enzo Life Sciences, USA).
(§4) The hydrolysis of this thiopeptide produces a sulfhydryl group which reacts with Ellman's reagent: 5,5′-dithiobis(2-nitrobenzoic acid) (DTNB) to form 2-nitro-5-thiobenzoic acid (TNB), which is detected by its absorbance at 412 nm
(§5) The tests are carried out in the buffer 50 mM Hepes, 10 mM CaCl2, 0.5% Brij35, 1 mM DTNB, pH 7.0 containing the purified MMP-9 and MMP-12 enzymes diluted to the final concentration of 0.8 μg/ml.
(§6) After preincubation of the enzymes (1 h at ambient temperature in the dark) with or without the products tested (minimum of four doses serially diluted one-in-ten), the cleavage reactions are initiated by adding 150 μM (final concentration) of substrate in a total final volume of 100 μl (96-well plate format).
(§7) The plates containing the reactions are read in a microplate reader (Multiskan Ascent, ThermoElectron, France) in order to continuously measure the absorbance and to record values every […] for 3 h. Each condition is carried out in triplicate.
(§8) The concentration which inhibits 50% of the reaction (IC50) is determined from curves representing the absorbance (optical density) of the final reaction product (TNB) as a function of the doses tested. Each experiment is carried out at least twice.

[2] = target: T2, metalloelastase MMP-12 (Homo sapiens, UniProt P39900); assay: Test for enzymatic inhibition of MMP-12 (colorimetric, thiopeptide substrate/DTNB); assay type: biochemical; details: purified human enzyme; for pIC50: 1 h preincubation, 150 μM substrate, read-out: IC50 MMP12; for pKi: read-out: Ki MMP12
T2 construct: purchased Anaspec, USA
T2 sequence (P39900 106-470): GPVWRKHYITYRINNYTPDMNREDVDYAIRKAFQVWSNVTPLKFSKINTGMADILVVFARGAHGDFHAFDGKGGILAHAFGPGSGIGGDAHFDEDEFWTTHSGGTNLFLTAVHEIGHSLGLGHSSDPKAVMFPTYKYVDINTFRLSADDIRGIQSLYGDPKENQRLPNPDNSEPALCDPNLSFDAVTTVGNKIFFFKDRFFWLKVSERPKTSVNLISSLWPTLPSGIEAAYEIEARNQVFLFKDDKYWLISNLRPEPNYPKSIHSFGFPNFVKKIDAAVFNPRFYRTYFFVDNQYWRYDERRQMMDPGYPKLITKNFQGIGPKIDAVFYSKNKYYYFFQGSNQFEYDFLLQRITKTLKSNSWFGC
Experimental: as §1, §2, §3, §4, §5, §6, §7, §8

T1 sequence (P14780 94-707): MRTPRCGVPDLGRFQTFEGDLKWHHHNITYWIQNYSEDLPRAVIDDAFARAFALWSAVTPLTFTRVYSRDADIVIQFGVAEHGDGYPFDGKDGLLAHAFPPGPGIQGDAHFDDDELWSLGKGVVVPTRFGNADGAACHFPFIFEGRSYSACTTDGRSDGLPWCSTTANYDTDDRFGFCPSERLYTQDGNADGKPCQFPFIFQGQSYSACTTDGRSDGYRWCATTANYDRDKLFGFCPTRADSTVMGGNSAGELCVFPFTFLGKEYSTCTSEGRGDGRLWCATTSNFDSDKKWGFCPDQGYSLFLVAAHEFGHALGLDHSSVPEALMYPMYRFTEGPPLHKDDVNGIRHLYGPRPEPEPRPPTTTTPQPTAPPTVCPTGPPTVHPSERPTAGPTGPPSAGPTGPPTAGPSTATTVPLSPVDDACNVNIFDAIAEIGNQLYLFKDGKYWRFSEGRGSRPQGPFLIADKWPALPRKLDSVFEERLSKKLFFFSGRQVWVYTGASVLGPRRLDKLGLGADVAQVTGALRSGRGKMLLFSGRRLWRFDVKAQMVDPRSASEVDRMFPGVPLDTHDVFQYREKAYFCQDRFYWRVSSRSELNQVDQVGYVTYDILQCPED

| SMILES | pIC50 [1] | pKi [1] | pIC50 [2] | pKi [2] |
| --- | --- | --- | --- | --- |
| C=C[C@H](C(=O)N[C@@H](Cc1ccccc1)C(=O)NC1CCCCC1)[C@@H](C)O [Compound 1, (S)—N—((S)-1-(cyclohexylamino)-1-oxo-3-phenylpropan-2-yl)-2-((R)-1-hydroxyethyl)but-3-enamide] | 4.74 | 5.05 | 4.71 | 5.00 |
| C=C[C@H](C(=O)N[C@@H](Cc1ccccc1)C(=O)NC1CCCCC1)[C@H](O)c1ccc(-c2ccccc2)cc1 [Compound 2, (S)-2-((S)-biphenyl-4-yl(hydroxy)methyl)-N—((S)-1-(cyclohexylamino)-1-oxo-3-phenylpropan-2-yl)but-3-enamide] | 3.90 | 4.21 | 4.70 | 4.99 |
| C=C[C@H](C(=O)N[C@@H](Cc1ccccc1)C(=O)NC1CCCCC1)[C@H](O)c1cc(OCc2ccc(OC)cc2)n(-c2ccccc2)n1 [Compound 3, (S)—N—((S)-1-(cyclohexylamino)-1-oxo-3-phenylpropan-2-yl)-2-((S)-hydroxy(5-(4-methoxybenzyloxy)-1-phenyl-1H-pyrazol-3-yl)methyl)but-3-enamide] | 5.30 | 5.61 | 5.14 | 5.43 |
| C=C[C@H](C(=O)N[C@@H](Cc1ccccc1)C(=O)O)[C@H](O)c1cc(OCc2ccc(OC)cc2)n(-c2ccccc2)n1 [Compound 4, (S)-2-((S)-2-((S)-hydroxy-(5-(4-methoxybenzyloxy)-1-phenyl-1H-pyrazol-3-yl)methyl)but-3-enamido)-3-phenylpropanoic acid] | 3.59 | 3.89 | 4.70 | 4.99 |
| C=C[C@H](C(=O)N[C@@H](Cc1ccccc1)C(=O)NO)[C@H](O)c1cc(OCc2ccc(OC)cc2)n(-c2ccccc2)n1 [Compound 5, (S)-2-((S)-hydroxy-(5-(4-methoxybenzyloxy)-1-phenyl-1H-pyrazol-3-yl)methyl)-N—((S)-1-(hydroxyamino)-1-oxo-3-phenylpropan-2-yl)but-3-enamide] | 4.70 | 5.01 | 4.65 | 4.94 |
| C=C[C@H](C(=O)N[C@@H](CC(=O)O)C(=O)O)[C@H](O)c1cc(OCc2ccc(OC)cc2)n(-c2ccccc2)n1 [Compound 6, (S)-2-((S)-2-((S)-hydroxy-(5-(4-methoxybenzyloxy)-1-phenyl-1H-pyrazol-3-yl)methyl)but-3-enamido)succinic acid] | 4.88 | 5.19 | 5.20 | 5.49 |
| C=C[C@H](C(=O)N[C@@H](CCSC)C(=O)O)[C@H](O)CCCC [Compound 7, (S)-2-((2S,3R)-3-hydroxy-2-vinylheptanamido)-4-(methylthio)butanoic acid] | 3.48 | 3.79 | 4.11 | 4.40 |

From patent US9682929B2, “Metalloprotease inhibitors, methods for producing same, and therapeutics uses thereof” (Centre National de la Recherche Scientifique-CNRS, priority 2013, dated 2017)
